This is an account of results in US11603387B2, “SOCS mimetics for the treatment of diseases” (UNIVERSITY OF FLORIDA RESEARCH FOUNDATION, INC., priority 2014, dated 2023).

For assay [1], the system named is SOCS1. Description: SOCS1 expression (qPCR, relative to GAPDH) in healthy control PBMCs treated in vitro. Type of assay: cell-based, human. As to conditions: chloroquine diphosphate salt for 12 and 24 h. The protocol:
FIGS. 9A and 9B. SOCS1 expression is not affected by chloroquine treatment, but is increased by dexamethasone treatment. (FIG. 9A) PBMCs, taken from healthy controls, were treated with (FIG. 9A) chloroquine diphosphate salt at the indicated molar concentrations for 12 and 24 h or (FIG. 9B) dexamethasone at the indicated molar concentrations for 3, 6, 12, or 24 h. Post treatment, SOCS1 expression, relative to GAPDH, was assessed via qPCR. Results shown as mean±s.e.m. The Kruskal-Wallis test followed by the Dunn's Multiple Comparison Test was chosen to assess statistical significance. (*P<0.05).
PBMCs were purified from heparinized blood by Ficoll-Paque gradient centrifugation. Briefly, whole blood was diluted with PBS (1:1) and gently layered on the Ficoll (Lymphocyte Separation Medium; Cellgro, Manassas, Va.). […]
Using the Promega RNA extraction protocol, total RNA was extracted from human PBMCs ex vivo or from mouse CD4^+CD25^− cells after being cultured under control (anti-CD3 and anti-CD28) or Th17 inducing conditions in the presence or absence of SOCS1-KIR peptide. cDNA synthesis and qPCR were performed as described in (Collins et al. 2011), with modifications. […] The amplification reactions took place in a PTC-200 Peltier Thermal Cycler with a CHROMO 4 Continuous Fluorescence Detector (BioRad). […] The fold change in expression was calculated using the ΔΔCT method.
A general note: In qPCR the cycle at which signal appears reflects the starting amount.

Assay [2] relates to SLE patients. Description: Subgroup analysis of SLE patients with and without prednisone treatment (PBMC western blot, RT-PCR). As to conditions: SLE patients receiving vs not receiving prednisone. Type of assay: in vivo, human. The text has this: FIGS. 20A-20F. […] Results shown are mean±SE; *represents significant Pearson correlation; ^ represents a t-test with significant mean difference. Correlation was considered significant at 0.05 level (2 tailed).
The UF Institutional scientific research and review board (IRB) on human subjects approved the study protocol. Written informed consent were obtained from all patients and controls in the study. In all, 34 SLE patients and 11 healthy controls were enrolled in the present study (Table 5). All SLE patients fulfilled the 1982 American College of Rheumatology (ACR) revised criteria for SLE (Tan et al. 1982). The patient's age ranged from 22 to 73 years while the health controls age ranged from 27 to 55 years. Healthy controls (N=11) were recruited from the outpatient clinics at the participating institutions. All patients underwent baseline investigations as per clinical requirements. Disease activity was assessed by the SLE disease activity index (SLEDAI) (Bombardier et al. 1992).
PBMCs were purified from heparinized blood by Ficoll-Hypaque gradient centrifugation. Briefly, whole blood was diluted with PBS (1:1) and gently layered on Ficoll (Lymphocyte Separation Medium; Cellgro, Manassas, Va.). Cells were centrifuged continuously at 400×g for 20 minutes. PBMCs were collected from the interface layer and washed 3 times with PBS. After isolation, PBMCs were lysed with RNA lysis buffer (Promega) and stored at −80° C. until RNA extraction and qPCR protocols were performed.
RT-PCR was performed to determine the transcript levels of SOCS1, SOCS3 and STAT1 genes in PBMCs, relative to GAPDH. In brief, cDNA synthesis was performed using the iQ cDNA synthesis kit (Bio-Rad; Hercules, Calif.). The qPCR was subsequently performed using the iQ SYBR Green Super mix (Bio-Rad) and gene-specific primers for SOCS1, SOCS3, IFN-G and IL-27. The real time RT-PCR reaction was performed on CFX Connect™-Real time system. The PCR for the target gene and GAPDH was duplicated twice for each sample and the results were corrected for GAPDH expression as an internal control. Further the data was analyzed using CFX Manager™ software version 3.0 (Bio-Rad technologies, Inc.).
Frozen PMBC cell pellets were thawed and lysed in RIPA lysis buffer (Santa Cruz Technologies, Inc.) followed by protein estimation through BSA 2.0 mg/ml standard curve preparation with Pierce protein assay reagents (Thermo Scientific Product #23209). Equal quantities of proteins were loaded and separated in 4%-12% SDS PAGE gel (Bio-rad) and separated proteins were transferred to nitrocellulose membrane (Bio-Rad Laboratories, Hercules, Calif.). The membranes were then blocked and incubated with polyclonal anti-rabbit antibodies specific to the KIR regions of SOCS1 and SOCS3 (a kind gift from Dr. Howard Johnson Labs, UF), anti-pSTAT1; anti-pERK1/2; anti-pAKT and for total STAT1; ERK1/2 and AKT respectively (Cell signaling). Further probed with appropriate secondary antibodies conjugated to HRP, and visualized with the ECL detection system according to the manufacturer's instruction (Pierce; Thermo Scientifics) The GAPDH was used as a loading control. The results were calculated as densitometry arbitrary units using the J image online software.

A short description of assay [3]: Anti-cellular activity. As to conditions: dimer compared with monomer. Type of assay: cell-based.
The target of assay [4] is JAK2 (Homo sapiens, UniProt O60674). Put plainly: Binding to the activation loop of JAK2. As to conditions: dimer compared with monomer.
Chain of JAK2 (O60674 whole entry, species assumed): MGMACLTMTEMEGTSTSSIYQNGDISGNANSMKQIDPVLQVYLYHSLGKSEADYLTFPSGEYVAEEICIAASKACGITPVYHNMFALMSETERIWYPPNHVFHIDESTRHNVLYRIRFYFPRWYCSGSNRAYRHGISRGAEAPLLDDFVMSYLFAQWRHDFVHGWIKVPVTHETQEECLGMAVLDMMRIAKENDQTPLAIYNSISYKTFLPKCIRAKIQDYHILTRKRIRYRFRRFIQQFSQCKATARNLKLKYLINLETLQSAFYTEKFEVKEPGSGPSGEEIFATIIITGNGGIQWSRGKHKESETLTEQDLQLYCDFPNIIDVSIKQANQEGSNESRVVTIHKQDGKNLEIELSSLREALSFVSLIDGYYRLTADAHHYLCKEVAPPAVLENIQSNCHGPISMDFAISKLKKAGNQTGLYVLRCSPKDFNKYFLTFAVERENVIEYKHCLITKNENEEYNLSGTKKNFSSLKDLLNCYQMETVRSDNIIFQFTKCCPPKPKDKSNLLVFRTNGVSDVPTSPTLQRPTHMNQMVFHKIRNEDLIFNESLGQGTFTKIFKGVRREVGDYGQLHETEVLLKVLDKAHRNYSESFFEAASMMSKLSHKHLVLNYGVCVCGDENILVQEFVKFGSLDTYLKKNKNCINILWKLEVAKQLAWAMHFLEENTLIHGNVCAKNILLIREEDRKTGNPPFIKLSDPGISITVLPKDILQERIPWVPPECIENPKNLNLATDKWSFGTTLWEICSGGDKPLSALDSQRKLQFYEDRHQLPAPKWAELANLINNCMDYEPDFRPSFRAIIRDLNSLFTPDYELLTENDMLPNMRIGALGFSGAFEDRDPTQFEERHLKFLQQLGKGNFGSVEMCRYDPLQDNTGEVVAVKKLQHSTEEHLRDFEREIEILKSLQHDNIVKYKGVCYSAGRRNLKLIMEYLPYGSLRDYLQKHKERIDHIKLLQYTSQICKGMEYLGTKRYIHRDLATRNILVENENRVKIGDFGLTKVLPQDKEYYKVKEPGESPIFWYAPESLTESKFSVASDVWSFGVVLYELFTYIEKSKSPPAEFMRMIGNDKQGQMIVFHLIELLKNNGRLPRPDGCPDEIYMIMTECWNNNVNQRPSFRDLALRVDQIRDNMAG
The subject of assay [5] is CD4+CD25− T cells from C56BL/6 mice. Description: Th17 induction (iTh17) and activation of CD4+CD25− T cells, SOCS1 monomer vs dimer. In kind it is cell-based, mouse. As to conditions: Th17 inducing conditions, peptide 20 μM, 5 days. As to the method: FIG. 11. […] CD4+CD25− T cells from B6 mice were in the presence of Th17 inducing conditions in the presence of SOCS1 monomer or dimer for 5 days. Cells were re-stimulated with PMA, ionomycin, and brefeldin, followed by staining with anti-CD4, anti-IL17, and anti-CD25 antibodies.
Induction of Th17 cells, iTh17, and the effect of treatment on induction is illustrated in FIG. 11. CD4^+CD25^− T cells from C56BL/6 mice were incubated for 5 days at 37° C. under 1) control conditions (anti-CD3 (10 μg/ml), anti-CD28 (1.5 μg/ml)); 2) Th17 inducing conditions (anti-CD3, anti-CD28, IL-6 (20 ng/ml), TGF-β (5 ng/ml)); 3) Th17 inducing conditions with SOCS1 monomer (20 μM), or Th17 inducing conditions with SOCS1 dimer (20 μM). Following a 5-day incubation, cells were re-stimulated with phorbol myristic acetate (PMA) (50 ng/ml), ionomycin (1 μM), and brefeldin A (10 μg/ml). To assess Th17 differentiation, cells were stained with anti-CD4 and anti-IL-17A antibodies. To assess activation, cells were stained with anti-CD4 and anti-CD25 antibodies.

In the case of `CCN(CC)CCCC(C)Nc1ccnc2cc(Cl)ccc12` (stereo not shown) [chloroquine], the SOCS1 expression entry in assay [1] is “not affected”.

For `C[C@]12C=CC(=O)C=C1CC[C@@H]1[C@@H]2C(=O)C[C@@]2(C)[C@H]1CC[C@]2(O)C(=O)CO` [prednisone], in assay [2], the “SOCS 1/3 message expression” value was “no effect”, the SOCS3 protein levels result is listed as “no effect” and the STAT1 phosphorylation result is reported as “no effect”. The SOCS1 protein levels entry in assay [2] (significant in inactive SLEDIA (n=9, p<0.001)) is “consistently had higher SOCS1 protein levels”. The pErk1/2 activation result in assay [2] (significant in inactive SLEDIA patients) was “higher levels of pErk1/2 activation”.

“DTHFRTFRSHSDYRRIGGGGGGDTHFRTFRSHSDYRRI (SOCS1-KIR dimer peptide) [SOCS1-KIR mimetic as a dimer with a six glycine (G) linker]”: the Anti-cellular activity result in assay [3] is reported as “increased anti-cellular activity”. In addition, in assay [4], the “Avidity for the activation loop of JAK2” value is “significantly increased the avidity”. In assay [5], the “Inhibition of CD4+ T cell activation (CD25 staining)” value is recorded as “More Effective than SOCS1 Monomer” and the “Inhibition of iTh17 induction (IL-17A staining)” value is “greater inhibitory effects on iTh17 than did the monomer”.
